Measurements: ChEMBL document CHEMBL1201862, “PubChem BioAssay data set” (2004)
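Protocol summary: plate cells (96-well), add compound at 5 concentrations, incubate 48 h, interpolate endpoints linearly. Here, GI50 denotes the concentration required for 50% inhibition of growth.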 Activity calls are given as the source filed them. No stated cut-off is given here; in the data, active = GI50 up to about 1.1 µM and inactive = higher.

Tests used:
Experiment in all cases: inhibition of tumour cell growth, NCI panel, 48 h
OVCAR-8 = tested on: OVCAR-8
OVCAR-5 = tested on: OVCAR-5
UO-31 = tested on: UO-31
HOP-92 = tested on: HOP-92
Malme-3M = tested on: Malme-3M
SF-268 = tested on: SF-268
IGROV-1 = tested on: IGROV-1
KM12 = tested on: KM12
SR = tested on: SR
CAKI-1 = tested on: CAKI-1
SN12C = tested on: SN12C
SK-MEL-2 = tested on: SK-MEL-2
SK-MEL-5 = tested on: SK-MEL-5
COLO 205 = tested on: COLO 205
LOX IMVI = tested on: LOX IMVI
SK-MEL-28 = tested on: SK-MEL-28
UACC-62 = tested on: UACC-62
SK-OV-3 = tested on: SK-OV-3
HOP-62 = tested on: HOP-62

Measured: GI50

Nc1nc(=O)[nH]c2c1cnn2Cc1ccccc1
inactive: OVCAR-8 > 100 µM | OVCAR-5 1.47 µM | UO-31 > 100 µM | HOP-92 > 100 µM | Malme-3M > 100 µM | SF-268 > 100 µM | IGROV-1 > 100 µM | KM12 > 100 µM | SR > 100 µM | CAKI-1 > 100 µM | SN12C > 100 µM | SK-MEL-2 > 100 µM | SK-MEL-5 > 100 µM | COLO 205 > 100 µM | LOX IMVI > 100 µM | SK-MEL-28 1.88 µM

O=C1COc2cccnc2N1CCCCO
inactive: UACC-62 > 100 µM | SK-OV-3 > 100 µM | OVCAR-5 > 100 µM | UO-31 > 100 µM | HOP-62 > 100 µM | HOP-92 > 100 µM | IGROV-1 > 100 µM | KM12 > 100 µM | SR > 100 µM | CAKI-1 > 100 µM | SN12C > 100 µM | SK-MEL-2 > 100 µM | SK-MEL-5 > 100 µM | LOX IMVI > 100 µM | SK-MEL-28 > 100 µM

COC1CCC2C(NS(=O)(=O)c3ccc(C)cc3)CCCC2O1.Cc1ccc(S(=O)(=O)NC(C)(C)C=O)cc1 (centres undefined)
inactive: UACC-62 33 µM | OVCAR-8 16.1 µM | SK-OV-3 > 34.5 µM | OVCAR-5 > 34.5 µM | UO-31 15 µM | HOP-62 20.8 µM | HOP-92 3.66 µM | Malme-3M 23 µM | SF-268 > 34.5 µM | IGROV-1 16.4 µM | KM12 12.4 µM | CAKI-1 20.3 µM | SN12C 23.5 µM | SK-MEL-2 > 34.5 µM | SK-MEL-5 7.76 µM | LOX IMVI 5.62 µM | SK-MEL-28 30 µM

CC(=O)OCC1OC(n2c(-c3ccc(C)cc3)cc(-c3ccccc3)c(C#N)c2=O)C(OC(C)=O)C(OC(C)=O)C1OC(C)=O (centres undefined)
inactive: UACC-62 > 100 µM | OVCAR-8 > 100 µM | SK-OV-3 > 100 µM | OVCAR-5 > 100 µM | UO-31 > 100 µM | HOP-62 > 100 µM | HOP-92 > 100 µM | Malme-3M > 100 µM | SF-268 > 100 µM | IGROV-1 > 100 µM | KM12 > 100 µM | CAKI-1 > 100 µM | SN12C > 100 µM | SK-MEL-2 > 100 µM | SK-MEL-5 > 100 µM | COLO 205 > 100 µM | LOX IMVI > 100 µM | SK-MEL-28 > 100 µM

CN1Nc2ccccc2CC1=O
inactive: UACC-62 > 100 µM | OVCAR-8 > 100 µM | SK-OV-3 > 100 µM | OVCAR-5 > 100 µM | UO-31 > 100 µM | HOP-62 > 100 µM | HOP-92 > 100 µM | Malme-3M > 100 µM | SF-268 > 100 µM | IGROV-1 > 100 µM | KM12 > 100 µM | CAKI-1 > 100 µM | SN12C > 100 µM | SK-MEL-2 > 100 µM | SK-MEL-5 > 100 µM | COLO 205 > 100 µM | LOX IMVI > 100 µM | SK-MEL-28 > 100 µM

COP(=O)(OC)C(=O)N1N(c2ccc([N+](=O)[O-])cc2)C(=O)C(C)NC1(NNc1ccc([N+](=O)[O-])cc1)P(=O)(OC)OC (centres undefined)
inactive: UACC-62 > 100 µM | OVCAR-8 > 100 µM | OVCAR-5 > 100 µM | UO-31 > 100 µM | HOP-62 > 100 µM | HOP-92 > 100 µM | Malme-3M > 100 µM | SF-268 > 100 µM | IGROV-1 > 100 µM | KM12 > 100 µM | SR > 100 µM | CAKI-1 > 100 µM | SN12C > 100 µM | SK-MEL-2 > 100 µM | SK-MEL-5 > 100 µM | COLO 205 > 100 µM | LOX IMVI > 100 µM | SK-MEL-28 > 100 µM

CCCCN1C(=O)NC(Cc2ccccc2)C1=O (centres undefined)
inactive: OVCAR-8 > 100 µM | OVCAR-5 > 100 µM | UO-31 > 100 µM | HOP-62 > 100 µM | Malme-3M > 100 µM | SF-268 > 100 µM | KM12 > 100 µM | SR > 100 µM | CAKI-1 > 100 µM | SN12C > 100 µM | SK-MEL-2 > 100 µM | LOX IMVI > 100 µM | SK-MEL-28 > 100 µM

Cc1cc(O)nc(NN2C(Cl)C(=O)C2c2ccc([N+](=O)[O-])cc2)n1 (centres undefined)
inactive: UACC-62 3.31 µM | OVCAR-8 17.8 µM | OVCAR-5 25.1 µM | UO-31 13.9 µM | HOP-62 7.76 µM | HOP-92 13.7 µM | SF-268 13.1 µM | IGROV-1 4.03 µM | KM12 > 10 µM | SR 6.15 µM | SN12C 11.1 µM | SK-MEL-2 6.07 µM | SK-MEL-5 13.5 µM | COLO 205 18.6 µM | LOX IMVI 5.96 µM | SK-MEL-28 11.9 µM

CC(=O)c1ccc(NC(=O)C(=O)CC(=O)c2sc(-n3nc(-c4ccccc4)cc3-c3ccccc3)nc2C)cc1
inactive: UACC-62 > 100 µM | OVCAR-8 > 100 µM | SK-OV-3 > 100 µM | OVCAR-5 > 100 µM | UO-31 > 100 µM | HOP-62 > 100 µM | Malme-3M > 100 µM | SF-268 > 100 µM | IGROV-1 > 100 µM | KM12 > 100 µM | SR > 100 µM | CAKI-1 > 100 µM | SN12C > 100 µM | SK-MEL-2 > 100 µM | COLO 205 > 100 µM | LOX IMVI > 100 µM

COc1nc(NC2OCC(OC(C)=O)C(OC(C)=O)C2OC(C)=O)c(/N=C(\C)C(C)=O)c(=O)n1C (centres undefined)
inactive: OVCAR-8 > 100 µM | OVCAR-5 > 100 µM | UO-31 > 100 µM | HOP-92 > 100 µM | Malme-3M > 100 µM | SF-268 > 100 µM | IGROV-1 > 100 µM | KM12 > 100 µM | SR > 100 µM | CAKI-1 > 100 µM | SN12C > 100 µM | SK-MEL-2 > 100 µM | SK-MEL-5 > 100 µM | COLO 205 > 100 µM | LOX IMVI > 100 µM | SK-MEL-28 > 100 µM

Cc1ccc(S(=O)(=O)NNC(=O)c2sc(-c3nc(C)c(C(=O)NNS(=O)(=O)c4ccc(C)cc4)s3)nc2C)cc1
inactive: UACC-62 72.3 µM | OVCAR-8 > 100 µM | SK-OV-3 > 100 µM | OVCAR-5 > 100 µM | UO-31 28.8 µM | HOP-62 > 100 µM | HOP-92 31 µM | Malme-3M > 100 µM | SF-268 > 100 µM | IGROV-1 > 100 µM | KM12 > 100 µM | CAKI-1 24 µM | SN12C > 100 µM | SK-MEL-2 > 100 µM | SK-MEL-5 71.1 µM | COLO 205 > 100 µM | LOX IMVI > 100 µM | SK-MEL-28 > 100 µM

O=C1c2ccccc2C(=O)C2C1C1C(=O)c3ccccc3C(=O)C21 (centres undefined)
inactive: UACC-62 > 100 µM | OVCAR-8 > 100 µM | SK-OV-3 > 100 µM | OVCAR-5 42.3 µM | UO-31 > 100 µM | HOP-62 > 100 µM | HOP-92 > 100 µM | Malme-3M 55.1 µM | SF-268 78.2 µM | IGROV-1 79.1 µM | KM12 49.7 µM | CAKI-1 > 100 µM | SN12C > 100 µM | SK-MEL-2 > 100 µM | SK-MEL-5 32.6 µM | COLO 205 > 100 µM | LOX IMVI 33.3 µM | SK-MEL-28 > 100 µM
